In the assay the test system is rat brain synaptosomes. Briefly: 6-OHDA-induced neurotoxicity, GSH level. Particulars: 10 µM pretreatment, 6-OHDA 150 mmol/L 1 h. The format is cell-based. As to the method: Synaptosomes were prepared from brains of adult male Wistar rats. The brains were homogenized in 10 volume of cold buffer 1, containing 5 mM HEPES and 0.32 M sucrose (pH = 7.4). The brain homogenate was centrifuged twice at 1000× g for 5 min at 4 °C. The supernatant was collected and centrifuged 3 times at 10,000× g for 20 min at 4 °C. The pellet was re-suspended in ice-cold buffer 1. The synaptosomes were isolated by using Percoll reagent to prepare the gradient. Synaptosomes were re-suspended and incubated in buffer 2, containing 290 mM NaCl, 0.95 mM MgCl2 × 6H2O, 10 mM KCl, 2.4 mM CaCl2 × H2O, 2.1 mM NaH2PO4, 44 mM HEPES, and 13 mM D-glucose. Incubations were performed in a 5% CO2 + 95% O2 atmosphere. The content of synaptosomal protein was determined according to the method of Lowry et al. using bovine serum albumin as a standard.
The metabolism and oxidation of dopamine cause reactive oxygen radicals and reactive quinones to be produced, which could lead to neurotoxicity and neurodegeneration. The synaptosomes were incubated with the compounds (10 µM) for 30 min and then 6-hydroxydopamnine (150 mmol/L) was used to induce neurotoxicity. […] After 1 h, they were centrifuged on a microcentrifuge for 1 min at 15,000 rpm. The precipitates were gently mixed with buffer B and glucose and centrifuged for a second time at 15,000 rpm for 1 min. After the second wash, buffer B and glucose were added to the precipitates.
In the presented experiments, an in vitro assessment of the possible antioxidant and neuroprotective effects of the newly synthetized compounds was performed in a model of 6-OHDA induced toxicity in rat brain synaptosomes. 6-OHDA is a neurotoxicant that structurally resembles dopamine and can be used in different in vivo and in vitro models for neurotoxicity. This model resembles the histological, biochemical, and physiological characteristics of neurodegenerative diseases such as Parkinson’s and Alzheimer’s disease. […] However, their uptake into brain synaptosomes is similar among primates and rodents and they are suitable in vitro models for PD. The main mechanism of 6-OHDA toxicity includes induction of oxidative stress. It undergoes auto-oxidation or metabolic degradation to p-quinone and produces hydrogen peroxide, superoxide, and hydroxyl radicals. The process causes lipid peroxidation, protein oxidation, and DNA oxidation and finally results in oxidative stress and mitochondrial dysfunction. Rat brain synaptosomes were pretreated with compounds 3e, 3h, 3i, 3m, melatonin, and rasagiline (10 μM); after that, the samples were subjected to 6-OHDA (150 mmol/L, 1 h). The protective effects were evaluated by measurement of synaptosomal viability (MTT-test) and GSH levels (Figure 3).

Take `O=C(CCn1c(=S)n(CCC(=O)NN=Cc2cccc(O)c2O)c2ccccc21)NN=Cc1cccc(O)c1O` [3h, 3,3′-(2-Thioxo-1H-benzo[d]imidazole-1,3(2H)-diyl)bis(N′-(2,3-dihydroxybenzylidene)propanehydrazide)]: the “restoration of GSH level vs. 6-OHDA treatment” value worked out at 62%.

Values taken from article PMC9138090, “Study on the Neuroprotective, Radical-Scavenging and MAO-B Inhibiting Properties of New Benzimidazole Arylhydrazones as Potential Multi-Target Drugs for the Treatment of Parkinson’s Disease” (Antioxidants, 2022).
